The record followed here is ChEMBL document CHEMBL2169818, “Syntheses and biological activities of sulfoximine-based acyclic triaryl olefins” (Bioorg Med Chem Lett, 2012).

Bounds are passed on as bounds.

Assay [1] deals with T1, Prostaglandin G/H synthase 1 (Homo sapiens, UniProt P23219). Nature of the assay: Inhibition of human platelet COX1 using arachidonic acid as substrate at 10 uM preincubated for 15 mins before arachidonic acid addition measured after 15 mins.
The target of assay [2] is Estrogen receptor beta (Homo sapiens) (UniProt Q92731). Nature of the assay: Displacement of [3H]-estradiol from human recombinant ERbeta expressed in Sf21 cells at 10 uM after 2 hrs. (In a radioligand displacement assay an active substance lowers the binding of a labelled ligand.)
Assay [3] deals with T2, Estrogen receptor (Homo sapiens) (UniProt P03372).
T2 sequence (whole entry): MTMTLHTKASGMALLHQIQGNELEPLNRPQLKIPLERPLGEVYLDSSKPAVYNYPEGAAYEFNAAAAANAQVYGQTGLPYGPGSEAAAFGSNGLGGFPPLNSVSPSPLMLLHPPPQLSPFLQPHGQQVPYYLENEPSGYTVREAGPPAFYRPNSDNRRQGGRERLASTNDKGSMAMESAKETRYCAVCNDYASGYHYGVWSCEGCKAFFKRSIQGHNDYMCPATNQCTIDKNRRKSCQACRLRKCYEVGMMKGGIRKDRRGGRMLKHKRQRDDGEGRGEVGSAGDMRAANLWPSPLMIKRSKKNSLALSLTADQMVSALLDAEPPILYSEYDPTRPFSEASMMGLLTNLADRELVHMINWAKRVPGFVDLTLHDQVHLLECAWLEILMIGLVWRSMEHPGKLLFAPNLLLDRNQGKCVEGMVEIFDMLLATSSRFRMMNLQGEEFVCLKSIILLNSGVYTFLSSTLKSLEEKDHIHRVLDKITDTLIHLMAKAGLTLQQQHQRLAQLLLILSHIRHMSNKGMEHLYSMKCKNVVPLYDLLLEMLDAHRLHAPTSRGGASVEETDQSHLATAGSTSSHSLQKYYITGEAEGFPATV
Nature of the assay: Displacement of [3H]-estradiol from human recombinant ERalpha expressed in Sf21 cells at 10 uM after 2 hrs.

The target in assay [4] is T1, Prostaglandin G/H synthase 1. Nature of the assay: Inhibition of COX1.
The target in assay [5] is T3, Prostaglandin G/H synthase 2 (Homo sapiens, UniProt P35354).
T3 sequence (P35354 whole entry): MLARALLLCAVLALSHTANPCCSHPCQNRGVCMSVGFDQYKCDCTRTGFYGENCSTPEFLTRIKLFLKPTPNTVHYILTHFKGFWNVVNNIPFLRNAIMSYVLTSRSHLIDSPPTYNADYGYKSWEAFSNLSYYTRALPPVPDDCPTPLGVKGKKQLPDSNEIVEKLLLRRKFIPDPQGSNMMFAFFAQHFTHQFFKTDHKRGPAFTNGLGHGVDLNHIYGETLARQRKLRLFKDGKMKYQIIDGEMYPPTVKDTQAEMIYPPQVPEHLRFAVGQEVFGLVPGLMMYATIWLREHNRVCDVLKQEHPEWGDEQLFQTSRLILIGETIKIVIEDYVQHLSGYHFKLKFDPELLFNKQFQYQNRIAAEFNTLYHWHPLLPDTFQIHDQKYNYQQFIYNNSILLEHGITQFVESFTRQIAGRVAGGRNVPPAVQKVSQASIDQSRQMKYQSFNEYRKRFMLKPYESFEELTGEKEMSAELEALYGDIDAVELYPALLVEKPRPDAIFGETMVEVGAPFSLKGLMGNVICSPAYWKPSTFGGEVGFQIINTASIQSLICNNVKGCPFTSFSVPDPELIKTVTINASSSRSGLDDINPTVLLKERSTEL
Nature of the assay: Inhibition of COX2.

In assay [6] the target is T4, Prostaglandin G/H synthase 2 (Homo sapiens) (UniProt P35354).
T4 sequence (whole entry): T3 sequence (P35354 whole entry)
Nature of the assay: Inhibition of human recombinant COX2 expressed in Sf21 cells using arachidonic acid as substrate at 10 uM preincubated for 15 mins before arachidonic acid addition measured after 5 mins.

What is called inhibition is the change of the read-out against control, counted positive when it falls. One may read the IC50 as the concentration at which inhibition is half-maximal. High values mean weaker potency in that assay, low ones greater potency in that assay.

Estrogen receptor beta (Homo sapiens), sequence (Q92731 whole entry): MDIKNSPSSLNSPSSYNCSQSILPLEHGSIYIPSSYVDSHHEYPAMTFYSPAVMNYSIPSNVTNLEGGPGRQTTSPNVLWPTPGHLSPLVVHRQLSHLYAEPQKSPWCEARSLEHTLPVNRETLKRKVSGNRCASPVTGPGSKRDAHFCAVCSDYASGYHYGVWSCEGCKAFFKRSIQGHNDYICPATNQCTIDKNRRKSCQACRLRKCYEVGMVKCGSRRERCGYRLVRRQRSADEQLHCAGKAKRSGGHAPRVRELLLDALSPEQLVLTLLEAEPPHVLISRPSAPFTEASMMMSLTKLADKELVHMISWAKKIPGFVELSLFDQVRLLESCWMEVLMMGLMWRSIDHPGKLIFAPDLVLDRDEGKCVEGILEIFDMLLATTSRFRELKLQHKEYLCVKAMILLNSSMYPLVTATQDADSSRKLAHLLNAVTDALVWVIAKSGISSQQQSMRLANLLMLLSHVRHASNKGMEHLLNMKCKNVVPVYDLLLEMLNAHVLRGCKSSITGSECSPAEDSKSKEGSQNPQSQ
T1 sequence (P23219 whole entry): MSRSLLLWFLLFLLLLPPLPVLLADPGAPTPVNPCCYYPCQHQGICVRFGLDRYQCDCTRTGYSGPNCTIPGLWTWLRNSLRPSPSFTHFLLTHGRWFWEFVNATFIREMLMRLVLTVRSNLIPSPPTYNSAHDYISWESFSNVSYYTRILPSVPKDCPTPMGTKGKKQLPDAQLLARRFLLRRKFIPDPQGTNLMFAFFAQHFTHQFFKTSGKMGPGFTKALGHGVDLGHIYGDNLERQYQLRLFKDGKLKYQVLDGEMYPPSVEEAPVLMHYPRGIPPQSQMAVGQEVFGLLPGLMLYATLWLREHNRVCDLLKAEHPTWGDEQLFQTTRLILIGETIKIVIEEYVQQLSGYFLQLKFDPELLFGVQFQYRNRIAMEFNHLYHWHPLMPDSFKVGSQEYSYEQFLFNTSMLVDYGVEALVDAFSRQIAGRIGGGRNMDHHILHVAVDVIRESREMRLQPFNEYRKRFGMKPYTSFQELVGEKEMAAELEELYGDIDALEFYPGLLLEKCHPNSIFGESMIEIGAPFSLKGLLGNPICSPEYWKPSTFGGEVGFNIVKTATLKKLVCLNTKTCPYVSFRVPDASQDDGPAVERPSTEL

Consider `CC(=C(c1ccccc1)c1ccccc1)c1ccc([S+](C)(=N)[O-])cc1` (stereo not given), for which the inhibition in assay [1] came to 23%; in assay [2], 53%; in assay [3], 77%.
Regarding `CCCCC(=C(c1ccccc1)c1ccccc1)c1ccc(S(C)(=O)=O)cc1`, the IC50 in assay [4] was more than 100000 nM; in assay [5] it was 14 nM. Moreover, the inhibition in assay [2] was 77%; in assay [3], -6%.
With `CCCCC(=C(c1ccccc1)c1ccccc1)c1ccc([S+](C)(=N)[O-])cc1` (stereo not given), the inhibition in assay [1] turned out to be 12%; in assay [6], 17%; in assay [2] it was 80%; in assay [3] it was 91%.
Turning to `CCCCC(=C(c1ccccc1)c1ccccc1)c1ccc([S+](C)([O-])=NC#N)cc1` (stereo not given), the inhibition in assay [1] was 5%; in assay [6] it was 10%; in assay [2], 60%; in assay [3], 54%.
